*1 amine or outer side, *2 acyl side, *3 side chain or, on linkers, in order; H or OH if unused. Where a SMILES comes first, the peptide text is derived from it. Bridges are numbered along the chain shown (N, C = ends). [ ]: non-standard residue; d: D form. The star is where a group is joined. ξ: configuration not given here. Phe(3-OMe,4-CONHMs) = COc1cc(C[C@H](N)C(=O)O)ccc1C(=O)NS(C)(=O)=O; hPhe(3-OMe,4-CONHMe) = CNC(=O)c1ccc(CC[C@H](N)C(=O)O)cc1OC; Glu(NHSO2Me) = CS(=O)(=O)NC(=O)CC[C@H](N)C(=O)O; NMePhe(3-Cl) = CN[C@@H](Cc1cccc(Cl)c1)C(=O)O; Tyr(3-OMe) = COc1cc(C[C@H](N)C(=O)O)ccc1O; X16 = CC(C)C(C)[C@H](N[*:1])C(=O)[*:2]; NMehPhe = CN[C@@H](CCc1ccccc1)C(=O)O; X7 = O=C(C[C@H](COCCO)N[*:1])[*:2]; Hyp = O=C(O)[C@@H]1C[C@@H](O)CN1; NMeF = CN[C@@H](Cc1ccccc1)C(=O)O; NMeGABA = CN(CCCC(=O)[*:2])[*:1]; NMeL = CN[C@@H](CC(C)C)C(=O)O; Thr(3ξ) = CC(O)[C@H](N)C(=O)O; dNMeL = CN[C@H](CC(C)C)C(=O)O; Butyl(3R-OH) = C[C@@H](O)CC*; NMeV = CN[C@H](C(=O)O)C(C)C; ξIle = CC[C@H](C)C(N)C(=O)O; NMeAbu = CC[C@H](NC)C(=O)O; NMeA = CN[C@@H](C)C(=O)O; Piperidide = C1CCN(*)CC1; Me2NCH2CH2 = CN(C)CC*; NBuGly = CCCCNCC(=O)O; NPrGly = CCCNCC(=O)O; Ethyl(2-OH) = OCC*; X3 = C[C@H](O)C*; Sar = CNCC(=O)O; tBu = CC(C)(C)*

One data set in a line: in vitro. Particulars: human, Caco-2, Caco-2.
For `CCCCN1CC(=O)N(C)[C@@H](CC(C)C)C(=O)N[C@@H](CCC(=O)NS(C)(=O)=O)C(=O)N(C)[C@@H](Cc2cccc(Cl)c2)C(=O)N(C)[C@@H](C(C)C)C(=O)N[C@H](C(=O)N2CCCCC2)CC(=O)N[C@H](CC(C)C)C(=O)N(C)[C@@H](Cc2cccc(Cl)c2)C(=O)N[C@@H](CC(C)C)C(=O)N(C)[C@@H](CC(C)C)C(=O)N[C@@H]([C@@H](C)O)C1=O` [pd60] ([dL][NMePhe(3-Cl)]L[NMeL]T[NBuGly][NMeL][Glu(NHSO2Me)][NMePhe(3-Cl)][NMeV]D-Piperidide; lactam N-11), the Papp – broadly, the rate of passage across a membrane or cell layer, normalised by area and donor concentration – was found to be 0.01 ×10⁻⁶ cm/s. The same measure, in the same setting: as for `CCCCN1CC(=O)N(C)[C@@H](CC(C)C)C(=O)N[C@@H](COCCN(C)C)C(=O)N(C)[C@@H](Cc2ccccc2)C(=O)N(C)[C@@H](C(C)C)C(=O)N[C@H](C(=O)N2CCCCC2)CC(=O)N[C@H](CC(C)C)C(=O)N(C)[C@@H](Cc2ccccc2)C(=O)N[C@@H](CC(C)C)C(=O)N(C)[C@@H](CC(C)C)C(=O)N[C@@H]([C@@H](C)O)C1=O` [pd51] ([dL][NMeF]L[NMeL]T[NBuGly][NMeL]S(Me2NCH2CH2)[NMeF][NMeV]D-Piperidide; lactam N-11), the figure is 0.07 ×10⁻⁶ cm/s.

Staying with this data set, now noted: human, Caco-2, Caco-2 (cm/sec).
`CCCCN1CC(=O)N(C)[C@@H](Cc2ccccc2)C(=O)N(C)[C@@H](CC(C)C)C(=O)N[C@@H](Cc2ccc(O)c(OC)c2)C(=O)N(C)[C@@H](CC(C)C)C(=O)N[C@H](C(=O)N2CCCCC2)CC(=O)N(C)CC(=O)N(C)[C@@H](CC(C)C)C(=O)N[C@@H]([C@@H](C)CC)C(=O)N(C)[C@@H](CC(C)C)C(=O)N[C@@H]([C@@H](C)O)C1=O` [Compound E08] ([Sar][NMeL]I[NMeL]T[NBuGly][NMeF][NMeL][Tyr(3-OMe)][NMeL]D-Piperidide; lactam N-11): the Papp was 0.12 ×10⁻⁶ cm/s.

For `CC(C)C[C@@H]1NC(=O)[C@H](Cc2ccccc2)N(C)C(=O)[C@H](COC(C)(C)C)NC(=O)[C@H](Cc2ccccc2)N(C)C(=O)[C@H](C)N(C)C(=O)[C@H](CC(C)C)N(C)C(=O)[C@@H](C)NC(=O)C[C@@H](C(=O)N2CCCCC2)NC(=O)[C@H](Cc2ccccc2)N(C)C(=O)[C@H]([C@@H](C)O)NC(=O)[C@H](CC(C)C)N(C)C1=O` [pd220] ([dA][NMeL][NMeA][NMeF]S(tBu)[NMeF]L[NMeL]T[NMeF]D-Piperidide; lactam N-11), the Papp was 1.1 ×10⁻⁶ cm/s. Compared with the last molecule, the Papp is about 9.2-fold higher.

`CC(C)C[C@@H]1NC(=O)[C@H](Cc2ccccc2)N(C)C(=O)[C@@H](C(C)C)NC(=O)C[C@@H](C(=O)N2CCCCC2)NC(=O)[C@H](CC(C)C)N(C)C(=O)[C@H](Cc2cccc(Cl)c2)N(C)C(=O)[C@H](COCC[C@@H](C)O)NC(=O)[C@H](CC(C)C)N(C)C(=O)CN(C)C(=O)[C@H]([C@@H](C)O)NC(=O)[C@H](CC(C)C)N(C)C1=O` [AP109] ([dV][NMeF]L[NMeL]T[Sar][NMeL]S(Butyl(3R-OH))[NMePhe(3-Cl)][NMeL]D-Piperidide; lactam N-11) displayed a Papp of 0.64 ×10⁻⁶ cm/s.

`CCCCN1CC(=O)N(C)[C@@H](Cc2ccccc2)C(=O)N(C)[C@@H](CC(C)C)C(=O)N[C@@H](CC(C)C)C(=O)N(C)[C@@H](CC(C)C)C(=O)N[C@H](C(=O)N2CCCCC2)CC(=O)N(C)CC(=O)N(C)[C@@H](CC(C)C)C(=O)N[C@@H](Cc2ccc(O)cc2)C(=O)N(C)[C@@H](CC)C(=O)N[C@@H]([C@@H](C)O)C1=O` [Compound F07] ([Sar][NMeL]Y[NMeAbu]T[NBuGly][NMeF][NMeL]L[NMeL]D-Piperidide; lactam N-11) displayed a Papp of 0.54 ×10⁻⁶ cm/s. `CC[C@H](C)[C@@H]1NC(=O)[C@H](CC(C)C)N(C)C(=O)CCCN(C)C(=O)C[C@@H](C(=O)N2CCCCC2)NC(=O)[C@H](CC(C)C)N(C)C(=O)[C@H](CC(C)C)N(C)C(=O)[C@H]([C@@H](C)O)NC(=O)[C@H](CC(C)C)N(C)C(=O)[C@H](COCCO)NC(=O)[C@H](CCc2ccccc2)N(C)C(=O)[C@H](CCc2ccccc2)N(C)C1=O` [Compound A04] ([NMeGABA][NMeL]I[NMehPhe][NMehPhe]S(Ethyl(2-OH))[NMeL]T[NMeL][NMeL]D-Piperidide; lactam N-11) displayed a Papp of 0.41 ×10⁻⁶ cm/s. The Papp values of the last two molecules are within 1.5-fold of each other. As for `CC[C@H](C)[C@@H]1NC(=O)[C@H](CC(C)C)N(C)C(=O)[C@@H]2C[C@@H](OCCO)CN2C(=O)[C@H]([C@@H](C)O)NC(=O)[C@H](CC(C)C)N(C)C(=O)[C@H](CC(C)C)NC(=O)[C@H](C(C)C(C)C)NC(=O)[C@@H](CC(C)C)N(C)C(=O)C[C@@H](C(=O)N2CCCCC2)NC(=O)[C@H](CC(C)C)NC(=O)[C@H](CC(C)C)N(C)C1=O` (stereo partly shown) [AP233] ([dNMeL][X16]L[NMeL]T[Hyp](Ethyl(2-OH))[NMeL]I[NMeL]LD-Piperidide; lactam N-11), the Papp came to 3 ×10⁻⁶ cm/s.

In turn, `CNC(=O)c1ccc(CC[C@@H]2NC(=O)[C@H](CC(C)C)N(C)C(=O)CCCN(C)C(=O)C[C@@H](C(=O)N3CCCCC3)NC(=O)[C@H](CC(C)C)N(C)C(=O)[C@H](CC(C)C)N(C)C(=O)[C@H]([C@@H](C)O)NC(=O)[C@H](CC(C)C)N(C)C(=O)[C@H](COC(C)(C)C)NC(=O)[C@H](Cc3ccccc3)N(C)C(=O)[C@H](CC(C)C)N(C)C2=O)cc1OC` [AP203] ([NMeGABA][NMeL][hPhe(3-OMe,4-CONHMe)][NMeL][NMeF]S(tBu)[NMeL]T[NMeL][NMeL]D-Piperidide; lactam N-11) registered a Papp of 0.41 ×10⁻⁶ cm/s. Still for that read-out and setting: as for `CCCCN1CC(=O)N(C)[C@@H](CC(C)C)C(=O)N(C)[C@@H](CC(C)C)C(=O)N[C@@H](COC(C)(C)C)C(=O)N(C)[C@@H](CC(C)C)C(=O)N[C@H](C(=O)N2CCCCC2)CC(=O)N(C)CC(=O)N(C)[C@@H](Cc2cccc(Cl)c2)C(=O)N[C@@H](Cc2ccc(C(=O)NS(C)(=O)=O)c(OC)c2)C(=O)N(C)[C@@H](CC(C)C)C(=O)N[C@@H]([C@@H](C)O)C1=O` [AP140] ([Sar][NMePhe(3-Cl)][Phe(3-OMe,4-CONHMs)][NMeL]T[NBuGly][NMeL][NMeL]S(tBu)[NMeL]D-Piperidide; lactam N-11), the figure is 0.49 ×10⁻⁶ cm/s. In the case of `CCCN1CC(=O)N(C)[C@@H](Cc2cccc(Cl)c2)C(=O)N(C)[C@@H](CC(C)C)C(=O)N[C@@H](COC[C@H](C)O)C(=O)N(C)[C@@H](CC(C)C)C(=O)N[C@H](C(=O)N2CCCCC2)CC(=O)N(C)CC(=O)N(C)[C@@H](Cc2ccccc2)C(=O)NC([C@@H](C)CC)C(=O)N(C)[C@@H](CC(C)C)C(=O)N[C@@H]([C@@H](C)O)C1=O` (stereo partly drawn) [AP68] ([Sar][NMeF][ξIle][NMeL]T[NPrGly][NMePhe(3-Cl)][NMeL]S(X3)[NMeL]D-Piperidide; lactam N-11), the Papp was determined as 0.24 ×10⁻⁶ cm/s.

As to `CCCCN1CC(=O)N(C)[C@@H](Cc2ccccc2)C(=O)N[C@@H]([C@@H](C)CC)C(=O)N(C)[C@@H](CC(C)C)C(=O)N[C@@H](C(C)O)C(=O)N(CCC)CC(=O)N(C)[C@@H](Cc2ccccc2)C(=O)N(C)[C@@H](CC(C)C)C(=O)N[C@@H](COCCO)CC(=O)N(C)[C@@H](CC(C)C)C(=O)N[C@H](C(=O)N2CCCCC2)CC1=O` (stereo partly drawn) [AP26] ([NBuGly][NMeF]I[NMeL][Thr(3ξ)][NPrGly][NMeF][NMeL][X7][NMeL]D-Piperidide; lactam N-11), the Papp turned out to be 0.37 ×10⁻⁶ cm/s.

Still in this data set, the particulars now being: human, Caco-2, Caco-2 (cm/sec) Papp.
`CC(C)C[C@H]1C(=O)N(C)[C@@H](Cc2ccccc2)C(=O)N(C)[C@@H](Cc2ccccc2)C(=O)N[C@@H]([C@@H](C)O)C(=O)N(C)[C@@H](C)C(=O)N(C)[C@@H](Cc2ccccc2)C(=O)N[C@H](C(=O)N2CCCCC2)CC(=O)N(C)[C@@H](C)C(=O)N(C)[C@@H](Cc2ccccc2)C(=O)N(C)[C@@H](CC(C)C)C(=O)N[C@@H](C(C)C)C(=O)N1C` [pd233] ([NMeA][NMeF][NMeL]V[NMeL][NMeF][NMeF]T[NMeA][NMeF]D-Piperidide; lactam N-11) yielded a Papp of 0.17 ×10⁻⁶ cm/s.

Source of the values: US20230096766A1, “AMINO ACID HAVING FUNCTIONAL GROUP CAPABLE OF INTERMOLECULAR HYDROGEN BONDING, PEPTIDE COMPOUND CONTAINING SAME AND METHOD FOR PRODUCTION THEREOF” (Chugai Seiyaku Kabushiki Kaisha, priority 2018, published 2023).
